According to PubChem BioAssay (NCI):
Several values for one entry are separate records, joined by “and”; a condition that tells them apart may be missing. Equal entries are not always repeated.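 Test compounds were applied to cells in 96-well plates for 48 hours at 5 doses. GI50 is the concentration that inhibits growth by half. TGI is the concentration that stops growth completely.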

Experiments:
Assay in all cases: NCI tumour cell line growth inhibition, 48 h
MDA-MB-435 = system: MDA-MB-435
SK-OV-3 ovarian = system: SK-OV-3 ovarian
RXF 393 renal = system: RXF 393 renal
CCRF-CEM leukemia = system: CCRF-CEM leukemia
HCC-2998 colon = system: HCC-2998 colon
HL-60(TB) leukemia = system: HL-60(TB) leukemia
TK-10 renal = system: TK-10 renal
U251 CNS = system: U251 CNS
HCT-15 colon = system: HCT-15 colon
OVCAR-8 ovarian = system: OVCAR-8 ovarian

Work on `OC(c1cc(C(F)(F)F)nc2c(Cl)cc(Cl)cc12)C1CCCCN1` (stereo not given) yielded a TGI (MDA-MB-435) of 18.4 µM, a TGI (SK-OV-3 ovarian) of 25.2 µM and a TGI (RXF 393 renal) of 18.8 µM. For the same compound, the TGI (CCRF-CEM leukemia) was 4.08 µM, the TGI (HCC-2998 colon) was greater than 100 µM and the TGI (HL-60(TB) leukemia) was 17.7 µM. It also gave a TGI (TK-10 renal) greater than 32.8 µM, a TGI (U251 CNS) greater than 48.3 µM and a TGI (HCT-15 colon) of 27.4 µM. It also gave a TGI (OVCAR-8 ovarian) of 32.5 µM.
With `COc1cc2c(cc1OCC(=O)Nc1ccc(Cl)cc1C(=O)c1ccccc1Cl)N=CC1CCCN1C2=O` (stereo not given) the GI50 (MDA-MB-435) was 13 µM, the TGI (MDA-MB-435) was 26.3 µM and the GI50 (SK-OV-3 ovarian) was 3.08 µM. It also gave a TGI (SK-OV-3 ovarian) of 12 µM, a GI50 (RXF 393 renal) of 4.31 µM and a TGI (RXF 393 renal) of 15.6 µM. It also gave a GI50 (CCRF-CEM leukemia) of 6.52 µM, a TGI (CCRF-CEM leukemia) greater than 100 µM and a GI50 (HCC-2998 colon) of 13.4 µM. It also gave a TGI (HCC-2998 colon) of 34.3 µM, a GI50 (HL-60(TB) leukemia) of 16.3 µM and a TGI (HL-60(TB) leukemia) of 56.2 µM. It also gave a GI50 (TK-10 renal) of 12.2 µM, a TGI (TK-10 renal) of 25.1 µM and a GI50 (U251 CNS) of 6.36 µM. It also gave a TGI (U251 CNS) of 19.3 µM, a GI50 (HCT-15 colon) of 12.6 µM and a TGI (HCT-15 colon) of 26 µM. For the same compound, the GI50 (OVCAR-8 ovarian) was 12 µM and the TGI (OVCAR-8 ovarian) was 26.3 µM.
`COc1cccc(N2CC(O)=C(c3nc4ccccc4s3)C2=N)c1` gave a GI50 (MDA-MB-435) of 0.0478 µM, a TGI (MDA-MB-435) of 0.362 µM and a GI50 (SK-OV-3 ovarian) of 0.702 µM. It also gave a TGI (SK-OV-3 ovarian) of 33.5 µM, a GI50 (RXF 393 renal) of 0.488 µM and a TGI (RXF 393 renal) of 45.1 µM. For the same compound, the GI50 (CCRF-CEM leukemia) was 0.243 µM, the TGI (CCRF-CEM leukemia) was greater than 100 µM and the GI50 (HCC-2998 colon) was 0.23 µM. It also gave a TGI (HCC-2998 colon) of 3.57 µM, a GI50 (HL-60(TB) leukemia) of 0.26 µM and a TGI (HL-60(TB) leukemia) greater than 100 µM. For the same compound, the GI50 (TK-10 renal) was 3.24 µM, the TGI (TK-10 renal) was 70.2 µM and the GI50 (U251 CNS) was 0.42 µM. For the same compound, the TGI (U251 CNS) was 19.5 µM, the GI50 (HCT-15 colon) was 0.09 µM and the TGI (HCT-15 colon) was 31.2 µM. The GI50 (OVCAR-8 ovarian) was 0.838 µM and the TGI (OVCAR-8 ovarian) was 65.9 µM.
`CCN(CC)CCOc1nc2ccccc2c2c1-c1ccc(OC)cc1C2=O` was tested, and the GI50 (MDA-MB-435) was 0.881 µM, the TGI (MDA-MB-435) was 2.36 µM and the GI50 (SK-OV-3 ovarian) was 2.48 µM. The TGI (SK-OV-3 ovarian) was greater than 36.6 µM, the GI50 (RXF 393 renal) was 1.63 µM and the TGI (RXF 393 renal) was 4.44 µM. The GI50 (CCRF-CEM leukemia) was 0.267 µM, the TGI (CCRF-CEM leukemia) was 2.23 µM and the GI50 (HCC-2998 colon) was 1.26 µM. For the same compound, the TGI (HCC-2998 colon) was 3.21 µM, the GI50 (HL-60(TB) leukemia) was 0.395 µM and the TGI (HL-60(TB) leukemia) was 1.85 µM. For the same compound, the GI50 (TK-10 renal) was 1.85 µM, the TGI (TK-10 renal) was 12.6 µM and the GI50 (U251 CNS) was 0.446 µM. For the same compound, the TGI (U251 CNS) was 2.3 µM, the GI50 (HCT-15 colon) was 0.472 µM and the TGI (HCT-15 colon) was 4.82 µM. It also gave a GI50 (OVCAR-8 ovarian) of 0.527 µM and a TGI (OVCAR-8 ovarian) of 5.7 µM.
With `O=C1C2=C(C(=O)c3ccccc31)C(O)(S(=O)(=O)O)C(O)(S(=O)(=O)O)C1N=CC=CC21` (stereo not given) the GI50 (MDA-MB-435) was 4.56 µM and 3.56 µM, the TGI (MDA-MB-435) was 80.5 µM and 24.8 µM and the GI50 (SK-OV-3 ovarian) was 4.61 µM and 8.35 µM. The TGI (SK-OV-3 ovarian) was 38.3 µM and 32.4 µM, the GI50 (RXF 393 renal) was 5.73 µM and 2.98 µM and the TGI (RXF 393 renal) was 28.6 µM and 11.9 µM. The GI50 (CCRF-CEM leukemia) was 6.47 µM, the TGI (CCRF-CEM leukemia) was greater than 100 µM and the GI50 (HCC-2998 colon) was 4.63 µM and 3.93 µM. The TGI (HCC-2998 colon) was 60.4 µM and 17.5 µM, the GI50 (HL-60(TB) leukemia) was 7.83 µM and 4.13 µM and the TGI (HL-60(TB) leukemia) was > 100 µM and 20.6 µM. For the same compound, the GI50 (TK-10 renal) was 6.25 µM and 9.35 µM, the TGI (TK-10 renal) was 68.3 µM and 28.8 µM and the GI50 (U251 CNS) was 3.85 µM and 2.69 µM. The TGI (U251 CNS) was 28.8 µM and 17.8 µM, the GI50 (HCT-15 colon) was 3.47 µM and 2.15 µM and the TGI (HCT-15 colon) was greater than 100 µM. The GI50 (OVCAR-8 ovarian) was 3.46 µM and 4.23 µM and the TGI (OVCAR-8 ovarian) was > 100 µM and 18.6 µM.
In the case of `COc1ccc2c3ccnc(C(F)(F)F)c3n(CCCCN)c2c1`, the GI50 (MDA-MB-435) was 5.69 µM, the TGI (MDA-MB-435) was 20.7 µM and the GI50 (SK-OV-3 ovarian) was 10.5 µM. For the same compound, the TGI (SK-OV-3 ovarian) was 25.3 µM, the GI50 (RXF 393 renal) was 2.3 µM and the TGI (RXF 393 renal) was 6.93 µM. For the same compound, the GI50 (CCRF-CEM leukemia) was 9.02 µM, the TGI (CCRF-CEM leukemia) was 47.8 µM and the GI50 (HCC-2998 colon) was 5.23 µM. The TGI (HCC-2998 colon) was 16.7 µM, the GI50 (HL-60(TB) leukemia) was 4.78 µM and the TGI (HL-60(TB) leukemia) was 20.1 µM. The GI50 (TK-10 renal) was 7.06 µM, the TGI (TK-10 renal) was 19.3 µM and the GI50 (U251 CNS) was 7.31 µM. For the same compound, the TGI (U251 CNS) was 21.2 µM, the GI50 (HCT-15 colon) was 10.8 µM and the TGI (HCT-15 colon) was 25 µM. The GI50 (OVCAR-8 ovarian) was 8.95 µM and the TGI (OVCAR-8 ovarian) was 26.4 µM.
